Experimental findings from BindingDB's records for doi:10.1021/jm991074s (University of Catania, 2000) are described below.

pKi: −log10 of the molar value.

This assay deals with Cannabinoid receptor 2 (Homo sapiens, UniProt P34972). The assay is described as follows: Binding affinity towards cloned human cannabinoid receptor 2.
Cannabinoid receptor 2, sequence (P34972 whole entry): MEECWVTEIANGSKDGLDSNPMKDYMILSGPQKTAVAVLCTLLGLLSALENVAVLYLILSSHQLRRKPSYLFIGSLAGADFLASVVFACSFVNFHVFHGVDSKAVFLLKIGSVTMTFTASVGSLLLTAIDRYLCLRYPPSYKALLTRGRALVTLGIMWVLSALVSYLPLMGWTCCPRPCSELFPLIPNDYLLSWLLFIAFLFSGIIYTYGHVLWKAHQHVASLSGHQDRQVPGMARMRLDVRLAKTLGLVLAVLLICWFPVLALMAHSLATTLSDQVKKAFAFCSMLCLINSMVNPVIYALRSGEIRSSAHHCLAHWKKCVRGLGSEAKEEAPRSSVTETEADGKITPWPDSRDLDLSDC

For orientation: pKi means the negative decadic logarithm of the Ki, by convention in mol/L. A higher pKi goes with a small Ki. In the case of `CCCCCn1ccc(C(=O)c2cccc3ccccc23)c1`, the pKi is 6.49. Then `CC1=CCC2C(C1)c1c(O)cc(CCCCC(F)(F)F)cc1OC2(C)C` (stereo not given), with 7.52; and `CCCCC/C=C\C/C=C\C/C=C\C/C=C\CCCC(=O)N1CCOCC1`, with 6.27. For `CCCCC/C=C\C/C=C\C/C=C\C/C=C\CCC(C(=O)NCCO)C(C)C` (stereo not given), the pKi was 5.29. `CC1=CCC2C(C1)c1c(O)cc(CCCCCF)cc1OC2(C)C` (stereo not given): the pKi was 8.06. `CCCCC/C=C\C/C=C\C/C=C\C/C=C\CCC(C)C(=O)NCCF` (stereo not given) [2-Methyl-icosa-5,8,11,14-tetraenoic acid (2-fluoro-ethyl)-amide (0689)]: the negative-log Ki (pKi) was 6.89. In the case of `CCCCCc1cc(O)c2c(c1)OC(C)(C)c1ccc(C)cc1-2` [6,6,9-Trimethyl-3-pentyl-6H-benzo[c]chromen-1-ol(Cannabinol)], the pKi was 7.02. `CCCCC/C=C\C/C=C\C/C=C\C/C=C\CCCC(=O)NCCF` [(5Z,8Z,11Z,14Z)-Icosa-5,8,11,14-tetraenoic acid (2-fluoro-ethyl)-amide] showed a pKi of 6.49. Then `CCCCC/C=C\C/C=C\C/C=C\C/C=C\CCCC(=O)NCCOC` [(5Z,8Z,11Z,14Z)-Icosa-5,8,11,14-tetraenoic acid (2-methoxy-ethyl)-amide], with 6.35; and `CCCCCn1c(C)c(C(=O)c2cccc3ccccc23)c2ccccc21` [JWH-007], with 8.52.
